This is an account of results in article PMC9610298, “Synthesis, Biological Evaluation and Machine Learning Prediction Model for Fluorinated Cinchona Alkaloid-Based Derivatives as Cholinesterase Inhibitors” (Pharmaceuticals, 2022).

For assay [1], the target named is T1, purified human BChE (Homo sapiens, UniProt P06276). The assay is described as follows: Reversible inhibition of BChE, Ellman method, enzyme-inhibitor dissociation constants. The class given is biochemical. The settings on record: for SI, selective index Ki(AChE)/Ki(BChE): times higher preference for BChE over AChE; for Ki: ± standard error, ATCh substrate, 25 °C, pH 7.4. Here is the method:
(§1) As a source of BChE, a purified human BChE, and as AChE, a recombinant human AChE was used, both enzymes kindly provided by Dr. F. Nachon (Département de Toxicologie, Armed Forces Biomedical Research Institute, France). The concentrated stocks of enzymes (BChE: 5.6 µM; AChE: 0.20 µM) were diluted in a phosphate sodium buffer 0.1 M (pH 7.4) containing 0.1% BSA before starting the experiments.
(§2) Enzyme activities were measured spectrophotometrically by the Ellman method at […] using 0.30 mM DTNB as thiol reagent, ATCh as substrate and water in 0.1 M phosphate buffer, pH 7.4. For the inhibition measurements, the reaction mixture contained tested compounds instead of water. […] Measurements were done at 25 °C on a Tecan Infinite M200Pro plate reader (Austria). A detailed description of measurement protocol was described previously.
(§3) The reversible inhibition of BChE and AChE by tested compounds was measured by determining the decrease of enzyme activity towards ATCh in their presence. The activities of the enzymes were measured at different substrate concentrations ([S]; 0.050–0.50 mM) in the absence (v0) and presence (vi) of the given tested compounds concentration ([I]; 0.050–200 µM, depending on the compound) selected to inhibit the enzymes for 20–80%. At least three concentrations of inhibitors for each substrate concentration were used in at least three experiments. The apparent dissociation inhibition constant (Ki,app) was calculated applying the Hunter-Downs equation and linear regression analysis (1):(1) Ki,app=vi/v0−vi⋅I=KI+KI/KS⋅S where y-intercept determines the enzyme-inhibitor dissociation constants (K(I)), while x-intercept determines the enzyme-substrate dissociation constant, K(S). The determination of kinetic constants was carried out using the GraphPadPrism 6.0 program (GraphPad Software, San Diego, CA, USA).
A general note: In Ellman's method for cholinesterases, released thiocholine reacts with DTNB.

The target of another assay is recombinant human AChE (Homo sapiens, UniProt P22303). Description: Reversible inhibition of AChE, Ellman method, enzyme-inhibitor dissociation constants. The settings on record: ± standard error; ATCh substrate, 25 °C, pH 7.4. Format: biochemical. Here is the method:
as §1, §2, §3

Assay [2] concerns the target T1, purified human BChE. The following applies: earlier determined; cited from earlier work.

As a reminder, the Ki is the equilibrium dissociation constant of an inhibitor or competing ligand from its target.

recombinant human AChE, sequence (P22303 32-614): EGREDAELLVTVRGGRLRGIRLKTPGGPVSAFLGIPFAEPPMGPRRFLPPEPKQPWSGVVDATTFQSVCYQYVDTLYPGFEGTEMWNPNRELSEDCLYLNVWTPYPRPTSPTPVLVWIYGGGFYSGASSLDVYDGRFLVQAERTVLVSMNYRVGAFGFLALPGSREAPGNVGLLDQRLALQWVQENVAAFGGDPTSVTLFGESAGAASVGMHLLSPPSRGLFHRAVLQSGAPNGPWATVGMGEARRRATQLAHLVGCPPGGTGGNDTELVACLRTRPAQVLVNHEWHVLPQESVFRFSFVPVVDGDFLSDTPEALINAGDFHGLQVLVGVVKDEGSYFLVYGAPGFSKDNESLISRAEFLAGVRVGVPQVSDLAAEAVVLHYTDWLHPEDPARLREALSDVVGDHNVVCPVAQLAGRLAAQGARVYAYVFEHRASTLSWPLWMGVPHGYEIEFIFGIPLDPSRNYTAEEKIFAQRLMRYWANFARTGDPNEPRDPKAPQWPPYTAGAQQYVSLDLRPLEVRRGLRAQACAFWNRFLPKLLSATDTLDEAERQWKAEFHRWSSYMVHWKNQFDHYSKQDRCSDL
T1 sequence (P06276 29-602): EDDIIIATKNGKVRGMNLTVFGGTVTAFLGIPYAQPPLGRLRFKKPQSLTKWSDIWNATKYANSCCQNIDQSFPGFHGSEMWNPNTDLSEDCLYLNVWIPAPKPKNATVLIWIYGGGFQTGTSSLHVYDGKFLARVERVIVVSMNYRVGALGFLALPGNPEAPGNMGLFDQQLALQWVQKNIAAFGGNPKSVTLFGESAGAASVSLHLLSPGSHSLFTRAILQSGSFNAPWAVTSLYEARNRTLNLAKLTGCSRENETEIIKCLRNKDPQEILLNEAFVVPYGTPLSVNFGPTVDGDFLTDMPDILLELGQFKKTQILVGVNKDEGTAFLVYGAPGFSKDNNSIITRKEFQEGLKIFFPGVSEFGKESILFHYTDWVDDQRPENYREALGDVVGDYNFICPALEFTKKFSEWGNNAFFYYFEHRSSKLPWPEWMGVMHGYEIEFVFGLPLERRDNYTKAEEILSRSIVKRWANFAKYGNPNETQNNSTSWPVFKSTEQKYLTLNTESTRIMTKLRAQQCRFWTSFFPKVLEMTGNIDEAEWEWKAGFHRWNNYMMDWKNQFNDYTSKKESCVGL

For the molecule `CCC1C[N+]2(Cc3cccc(C(F)(F)F)c3)CCC1C[C@H]2[C@H](O)c1ccnc2ccccc12` (stereo partly shown) [DHCD 3CF3, N-(3-trifluoromethylbenzyl)-10,11-dihydrocinchonidinium bromide], on purified human BChE [1], the “SI, selective index Ki(AChE)/Ki(BChE)” value was 18 and the Ki came to 1.4 ± 0.1 µM. Moreover, the Ki at recombinant human AChE stood at 25 ± 1 µM.
Turning to `CCC1C[N+]2(Cc3cccc(F)c3)CCC1C[C@H]2[C@H](O)c1ccnc2ccccc12` (stereo partly shown) [DHCD 3F], at purified human BChE [1], the “SI, selective index Ki(AChE)/Ki(BChE)” value is reported as 84 and the Ki turned out to be 0.3 ± 0.02 µM. Also, the inhibition constant Ki at recombinant human AChE worked out at 27 ± 2 µM.
In the case of `CCC1C[N+]2(Cc3cccc(OC(F)(F)F)c3)CCC1C[C@H]2[C@H](O)c1ccnc2ccccc12` (stereo partly shown) [DHCD 3OCF3, N-(3-trifluoromethoxybenzyl)-10,11-dihydrocinchonidinium bromide], on purified human BChE [1], the “SI, selective index Ki(AChE)/Ki(BChE)” value was determined as 5 and the Ki came out at 6.8 ± 0.3 µM. Also, the Ki at recombinant human AChE came to 36 ± 1 µM.
Taken in the same sequence, the figures for `CCC1C[N+]2(Cc3ccc(C(F)(F)F)cc3)CCC1C[C@H]2[C@H](O)c1ccnc2ccccc12` (stereo partly shown) [DHCD 4CF3] were 5, 3.2 ± 0.2 µM and 15 ± 1 µM.
As to `CCC1C[N+]2(Cc3ccc(F)cc3)CCC1C[C@H]2[C@H](O)c1ccnc2ccccc12` (stereo partly shown) [DHCD 4F, N-(4-fluorobenzyl)-10,11-dihydrocinchonidinium bromide], the “SI, selective index Ki(AChE)/Ki(BChE)” value on purified human BChE [1] was 8. For the same molecule, the Ki on purified human BChE [1] is 4.3 ± 0.2 µM; on recombinant human AChE it was 31 ± 1 µM.
Consider `CCC1C[N+]2(Cc3ccc(OC(F)(F)F)cc3)CCC1C[C@H]2[C@H](O)c1ccnc2ccccc12` (stereo partly shown) [DHCD 4OCF3, N-(4-trifluoromethoxybenzyl)-10,11-dihydrocinchonidinium bromide], for which, on purified human BChE [1], the “SI, selective index Ki(AChE)/Ki(BChE)” value is recorded as 3 and the inhibition constant (Ki) worked out at 5.9 ± 0.2 µM. The Ki on recombinant human AChE is 17 ± 1 µM.
Taken in the same sequence, the figures for `CCC1C[N+]2(Cc3ccccc3)CCC1C[C@H]2[C@H](O)c1ccnc2ccccc12` (stereo partly shown) [DHCD Bzl] were 12, 0.4 ± 0.02 µM and 4.8 ± 0.4 µM.
Consider `CCC1CN2CCC1CC2C(O)c1ccnc2ccccc12` (stereo not shown) [DHCD, 10,11-dihydrocinchonidine], for which the “SI, selective index Ki(AChE)/Ki(BChE)” value at purified human BChE [1] was 11. Further, the values for the Ki on purified human BChE [1] and on recombinant human AChE were 19 ± 2 µM and 206 ± 6 µM, respectively.
In the case of `CCC1C[N+]2(Cc3cccc(C(F)(F)F)c3)CCC1C[C@@H]2[C@@H](O)c1ccnc2ccccc12` (stereo partly shown) [DHCN 3CF3], at purified human BChE [1], the “SI, selective index Ki(AChE)/Ki(BChE)” value is 34 and the affinity corresponds to a Ki of 1.2 ± 0.05 µM. Also, the Ki on recombinant human AChE was 41 ± 2 µM.
Taken in the same sequence, the figures for `CCC1C[N+]2(Cc3cccc(F)c3)CCC1C[C@@H]2[C@@H](O)c1ccnc2ccccc12` (stereo partly shown) [DHCN 3F, N-(3-fluorobenzyl)-10,11-dihydrocinchoninium bromide] were 20, 1.2 ± 0.1 µM and 20 ± 1 µM.
Turning to `CCC1C[N+]2(Cc3cccc(OC(F)(F)F)c3)CCC1C[C@@H]2[C@@H](O)c1ccnc2ccccc12` (stereo partly shown) [DHCN 3OCF3, N-(3-trifluoromethoxybenzyl)-10,11-dihydrocinchoninium bromide], the “SI, selective index Ki(AChE)/Ki(BChE)” value at purified human BChE [1] worked out at 52. Moreover, the Ki is 1.3 ± 0.5 µM on purified human BChE [1] and 68 ± 1 µM on recombinant human AChE.
On to `CCC1C[N+]2(Cc3ccc(C(F)(F)F)cc3)CCC1C[C@@H]2[C@@H](O)c1ccnc2ccccc12` (stereo partly shown) [DHCN 4CF3], for which, at purified human BChE [1], the “SI, selective index Ki(AChE)/Ki(BChE)” value was found to be 9 and the Ki was found to be 1.6 ± 0.1 µM. Also, the Ki on recombinant human AChE worked out at 18 ± 1 µM.
As to `CCC1C[N+]2(Cc3ccc(F)cc3)CCC1C[C@@H]2[C@@H](O)c1ccnc2ccccc12` (stereo partly shown) [DHCN 4F, N-(4-fluorobenzyl)-10,11-dihydrocinchoninium bromide], the “SI, selective index Ki(AChE)/Ki(BChE)” value at purified human BChE [1] was found to be 40. The values for the Ki on purified human BChE [1] and on recombinant human AChE were 1.6 ± 0.1 µM and 64 ± 2 µM, respectively.
Turning to `CCC1C[N+]2(Cc3ccc(OC(F)(F)F)cc3)CCC1C[C@@H]2[C@@H](O)c1ccnc2ccccc12` (stereo partly shown) [DHCN 4OCF3, N-(4-trifluoromethoxybenzyl)-10,11-dihydrocinchoninium bromide], at purified human BChE [1], the “SI, selective index Ki(AChE)/Ki(BChE)” value stood at 10. Also, the values for the Ki on purified human BChE [1] and at recombinant human AChE were 2.2 ± 0.1 µM and 22 ± 1 µM, respectively.
Regarding `CCC1C[N+]2(Cc3ccccc3)CCC1C[C@@H]2[C@@H](O)c1ccnc2ccccc12` (stereo partly shown) [DHCN Bzl], on purified human BChE [1], the “SI, selective index Ki(AChE)/Ki(BChE)” value was 23 and affinity was put at a Ki of 0.9 ± 0.04 µM. In addition, the Ki on recombinant human AChE is 21 ± 1 µM.
For `C=CC1C[N+]2(Cc3ccc(Br)cc3)CCC1CC2C(O)c1ccnc2ccccc12` (stereo not shown) [N-para-bromobenzyl CD derivative], the “selectivity to BChE over AChE (times)” value at purified human BChE [2] was 510.
